In paper PMC6017654, “Ionic Liquid-Promoted Synthesis of Novel Chromone-Pyrimidine Coupled Derivatives, Antimicrobial Analysis, Enzyme Assay, Docking Study and Toxicity Study” (Molecules : A Journal of Synthetic Chemistry and Natural …, 2018):
Converted amounts (≈) assume the structure as drawn.

Columns and labels:
[1] = In vitro cytotoxicity, Sulforhodamine B (SRB) assay; format: cell-based, human; details: human, range 80 to 0.55 μg/mL
Excerpt: (§1) Toxicity scrutiny of synthesized compounds at the early phase of research paves the way to clinical trials and reduces the failure of potential therapeutics at later stages of clinical trials. To scrutinize the safety and selectivity of antimicrobial activity of the synthesized compounds, the compounds 6c and 6f were appraised for their toxicity against HeLa (a human cervical cancer cell line) and PC-3 (human prostate cancer cell line) by the Sulforhodamine B (SRB) assay using adriamycin as a standard drug.
(§2) The images were captured using an Eclipse Ti-S Inverted Research Microscope (Nikon, Tokyo, Japan). Image processing software used was NIS-Elements.

[2] = test system: HeLa (human cervical cancer cell line); assay: as above; format: cell-based; details: up to 80 µg/mL
Excerpt: as §1, §2

[3] = test system: Cryptococcus neoformans; assay: In vitro antifungal activity (MIC100, CLSI/NCCLS); format: cell-based; details: C. neo., average of three readings, read-out: MIC 100
Procedure: (§3) The newly synthesized derivatives 4(a–f) and 6(a–f) were screened for their in vitro antifungal activity against different yeast and filamentous fungal pathogens. Minimum inhibitory concentration (MIC100) values for in vitro antifungal activity were determined by the methods recommended by National Committee for Clinical Laboratory Standards (NCCLS). Miconazole was used as standard drug. Dimethyl sulfoxide (DMSO) was used as solvent control.
(§4) In vitro antifungal activity was determined as per CLSI (formerly, NCCLS) guidelines. […] The medium yeast nitrogen base was dissolved in phosphate buffer pH 7 and it was autoclaved at 110 °C for 10 min. With each set a growth control without the antifungal agent and solvent control DMSO were included. The fungal strains were freshly sub cultured on to Sabouraud dextrose agar (SDA) and incubated at 25 °C for 72 h. The fungal cells were suspended in sterile distilled water and diluted to get 10^5 cells/mL. Further, ten microlitres of the standardized suspension was inoculated onto the control plates and the media incorporated with the antifungal agents. The inoculated plates were incubated at 25 °C for 48 h. The readings were taken at the end of 48 h and 72 h. The MIC was the lowest concentration of drug preventing growth of macroscopically visible colonies on drug containing plates when there was visible growth on the drug free control plates.

[4] = test system: Aspergillus fumigates; assay: In vitro antifungal activity (MIC100, CLSI/NCCLS); format: cell-based; details: A. fum., average of three readings, read-out: MIC 100
Procedure: as §3, §4

[5] = test system: Candida glabrata; assay: In vitro antifungal activity (MIC100, CLSI/NCCLS); format: cell-based; details: Nakaseomyces glabratus; C. glab.; average of three readings; read-out: MIC 100
Procedure: as §3, §4

[6] = test system: Aspergillus niger; assay: In vitro antifungal activity (MIC100, CLSI/NCCLS); format: cell-based; details: A. nig., average of three readings, read-out: MIC 100
Procedure: as §3, §4

[7] = test system: A. flavus; assay: In vitro antifungal activity (MIC100, CLSI/NCCLS); format: cell-based; details: Aspergillus flavus; A. fla.; average of three readings; read-out: MIC 100
Procedure: as §3, §4

[8] = test system: Candida albicans; assay: In vitro antifungal activity (MIC100, CLSI/NCCLS); format: cell-based; details: C. alb., average of three readings, read-out: MIC 100
Procedure: as §3, §4

[9] = test system: Fusarium oxysporum; assay: In vitro antifungal activity (MIC100, CLSI/NCCLS); format: cell-based; details: F. oxy., average of three readings, read-out: MIC 100
Procedure: as §3, §4

[10] = test system: Swiss albino mice; assay: In vivo acute oral toxicity study and gross behavioral study (OECD guideline No. 425)
Procedure: The in vivo acute oral toxicity and gross behavioral study results of the newly synthesized compounds 6c and 6f are as listed in Table 12 [26].
Each group, consisting of six Swiss albino mice (18–22 gm weight, overnight fasted), were kept in colony cage at 25 ± 2 °C with 55% relative humidity and 12 h of light and dark cycle. A specified dose of 100, 250, 500, 750, 1000, 1500 and 2000 mg/kg body weight of mice was administered orally as a single dose. The acute toxic symptoms and the behavioral changes produced by the test compounds were observed continuously for 4 h periods at 8th, 12th and 24th h on set of toxic symptoms and the gross behavioral changes were also recorded. These animals were maintained for further 10 days with observation made daily. The in vivo acute oral toxicity study was carried out at animal house at the Y.B. Chavan College of Pharmacy, Aurangabad IAEC approval number CPCSEA/IAEC/P’col-52/2015-16/115 [26].

[11] = molecular target: DdlB from E.coli (Escherichia coli, UniProt P07862); assay: D-Alanine-D-alanine ligase (DdlB) enzyme inhibition, malachite green method; format: biochemical; details: 37 °C, 30 min incubation, 5% DMSO
Procedure: The key enzyme involved in the peptidoglycan biosynthesis is D-alanine-D-alanine ligase (Ddl), making it an important target for drug discovery. Inhibition of DdlB as an essential enzyme in either Gram-positive or Gram-negative organisms leads to the loss of cell shape and integrity followed by bacterial death. The synthesized derivatives 4(a–f) and 6(a–f) were tested for their inhibitory activity on DdlB from E.coli. The results are presented as IC50 values.
The D-Ala-adding activity of DdlB ligase was monitored by the detection of orthophosphate generated during the reaction based on the colorimetric malachite green method described by Walsh et al.. […] All the compounds were soluble in the assay mixture containing 5% DMSO. After 30 min of incubation, 100 µL Biomol reagent was added. After 5 min, absorbance was read at 650 nm. Residual activity was calculated with respect to a similar assay without inhibitor. To exclude possible non-specific (promiscuous) inhibitors, representative compounds 4(a–f) and 6(a–f) were also tested in the presence of Tween (0.003%), Triton X-114 (0.005%), and SDS (420 µM), as described by McGovern et al.. No significant differences were found when compared to measurements without detergents.

[12] = test system: Escherichia coli 1411; assay: In vitro antibacterial activity (MIC100, two fold serial dilution, NCCLS); format: cell-based; details: Escherichia coli, 1411, 24 h, read-out: MIC100
Procedure: (§5) All the synthesized compounds 4(a–f) and 6(a–f) were screened for their in vitro antibacterial activity against Staphylococcus aureus (NCIM-2901), Escherichia coli 1411 (standard laboratory strains) and Escherichia coli SM1411 (an acrAB deficient derivative of 1411). Minimum inhibitory concentration (MIC100) values were determined using methods recommended by National Committee for Clinical Laboratory Standards (NCCLS). Dimethyl sulfoxide (DMSO) was used as solvent control.
(§6) All the synthesized compounds 4(a–f) and 6(a–f) were screened for their in vitro antibacterial activity against Staphylococcus aureus (NCIM-2901) and Escherichia coli 1411 (standard laboratory strains) and Escherichia coli SM1411 (an acrAB deficient derivative of 1411). Minimum inhibitory concentration (MIC100) values were determined using the method recommended by National Committee for Clinical Laboratory Standards (NCCLS). In vitro antibacterial activities of the synthesized compounds 4(a–f) and 6(a–f) were tested in Nutrient Broth (NB) for Bacteria by the two fold serial dilution method. Seeded broth (broth containing microbial spores) was prepared in NB from 24 h old bacterial cultures on nutrient agar (Hi-media) at 37 ± 1 °C. The bacterial suspension was adjusted with sterile saline to a concentration of […]. The synthesized compounds and standard drug D-cycloserine were prepared by two fold serial dilutions to obtain the required concentrations. The tubes were incubated in BOD incubators at 37 ± 1 °C for bacteria. The MICs were recorded by visual observations after 24 h (for bacteria) of incubation.

[13] = test system: Escherichia coli SM1411 (an acrAB deficient derivative of 1411); assay: as above; format: cell-based; details: 24 h, read-out: MIC100
Procedure: as §5, §6

[14] = test system: Staphylococcus aureus (NCIM-2901); assay: as above; format: cell-based; details: Staphylococcus aureus, NCIM2901, 24 h, read-out: MIC100, S. aureus NCIM-2901, average of three readings
Procedure: as §5, §6

[15] = test system: ergosterol biosynthesis in Candida albicans (NCIM-3471); assay: Ergosterol extraction and quantitation assay (UV sterol profile); format: cell-based; details: C. albicans NCIM3471; 6f 24 µg/mL, miconazole 25 µg/mL; 281.5 nm
Procedure: Changes in this absorption pattern are therefore indicative of interference in the synthetic pathway of ergosterol.
A single Candida albicans (NCIM-3471) colony from an overnight Sabouraud dextrose agar plate culture was used to inoculate 50 mL of Sabouraud dextrose broth for control and for various concentrations of the molecules. The cultures were incubated for 16 hours and harvested by centrifugation at 2700 rpm (856× g) for five min. The net weight of the cell pellet was determined. Three mL of 25% alcoholic potassium hydroxide solution was added to each pellet and vortex mixed for one min. Cell suspensions were transferred to sterile borosilicate glass screw-cap tubes and were incubated in an 85 °C water bath for one hour. Following incubation, the tubes were allowed to cool. Sterols were then extracted by addition of a mixture of 1 mL of sterile distilled water and 3 mL of n-heptane followed by vigorous vortex mixing for 3 min. The heptane layer was transferred to a clean borosilicate glass screw-cap tube and stored at −20 °C. Prior to analysis, 0.6 mL aliquot of sterol extract was diluted five fold in 100% ethanol and scanned spectrophotometrically between 240 nm and 300 nm with a spectrophotometer (UV-Visible Spectrophotometer 2100, Thermo Fischer Scientific, Waltham, MA, USA). The presence of ergosterol and the late sterol intermediate 24(28)-dehydroergosterol (DHE) in the extracted sample results in a characteristic four-peaked curve. The absence of detectable ergosterol in extracts was indicated by a flat line.
Sterols were extracted from cells and spectral profiles between 240 and 300 nm were determined.

## COc1cccc2c1C(=O)c1c(O)c3c(c(O)c1C2=O)C[C@@](O)(C(=O)CO)C[C@@H]3O[C@H]1C[C@H](N)[C@H](O)[C@H](C)O1 [Adriamycin, reference compound]
[1]; HeLa cells, SRB assay
  GI50: 0.5 mg/L (≈ 0.92 µM)
[1]; PC-3 cells
  GI50: 0.5 mg/L (≈ 0.92 µM)

## CC1=C(C(=O)NN)C(c2coc3ccc(F)cc3c2=O)NC(=O)N1 (centres unmarked) [Compound 6c, 4-(6-Fluoro-4-oxo-4H-chromen-3-yl)-6-methyl-2-oxo-1,2,3,4-tetrahydropyrimidine-5-carbohydrazide]
[1]; HeLa cells, SRB assay
  GI50: > 80 mg/L
[1]; PC-3 cells
  GI50: > 80 mg/L
[2]
  cell inhibition: cell inhibition did not occur
[3]
  MIC: 40 mg/L (≈ 120 µM)
[4]
  MIC: 60 mg/L (≈ 181 µM)
[5]
  MIC: 52 mg/L (≈ 156 µM)
[6]
  MIC: 40 mg/L (≈ 120 µM)
[7]
  MIC: 42 mg/L (≈ 126 µM)
[8]
  MIC: 52 mg/L (≈ 156 µM)
[9]
  MIC: 58 mg/L (≈ 175 µM)
[10]; Swiss albino mice, single oral dose 100 to 2000 mg/kg
  No. of Deaths: N
[10]; mice, oral, single dose, no mortality up to 2000 mg/kg
  lethal dose: above 2000 mg/kg body weight
[11]
  IC50: 106 µM
[12]
  MIC: 14 mg/L (≈ 42.1 µM)
[13]
  MIC: 14 mg/L (≈ 42.1 µM)
[14]
  MIC: 32 mg/L (≈ 96.3 µM)

## Clc1ccc(COC(Cn2ccnc2)c2ccc(Cl)cc2Cl)c(Cl)c1 (centres unmarked) [Miconazole, reference compound]
[3]
  MIC: 12 mg/L (≈ 28.8 µM)
[4]
  MIC: 35 mg/L (≈ 84.1 µM)
[5]
  MIC: 25 mg/L (≈ 60.1 µM)
[6]
  MIC: 12 mg/L (≈ 28.8 µM)
[7]
  MIC: 12 mg/L (≈ 28.8 µM)
[8]
  MIC: 25 mg/L (≈ 60.1 µM)
[9]
  MIC: 25 mg/L (≈ 60.1 µM)
[15]
  ergosterol peak in UV sterol profile at the MIC value: inhibition of ergosterol
